US9125940B2, “Compositions and methods for treating macular edema” (priority 2011, dated 2015)

Tested on: macular edema
Assay: Case report Example 1: patient with macular edema after central vein occlusion in the left eye, OCT, vision acuity and eye pressure
Format: in vivo, human
Source text: A patient experienced central vein occlusion in their left eye and subsequently suffered macular edema in 2005. Weak drusens were found in both of their eyes. […] The patient received corsteroid injection in the left eye. The macular edema went away for four months. However, the left eye pressure went up to 35-40 mmHg. Eye drops for lowering eye pressure were used to treat the high eye pressure. Within half a year, the patient developed cataract in their left eye and shortly thereafter advanced to a point that their left eye lost most vision and the eye specialist recommended surgery to remove the cataract. At the time of the surgery, it was discovered that the patient's macular edema had come back and it was rather severe. Avastin injection was then employed to treat macular edema. The edema went away for a month but still came back 2-3 months afterwards. At this point, the patient was notified that regular injection would be required for the rest of their life. As shown in the images from Optical Coherence Tomography (OCT) (FIG. 1), macular edema returned three months after the Avastin injection. Such was a repeated phenomenon since 2005, for more than three years. Macular edema re-occurred typically 3 months following Avastin injection. […].

[1] = June 2008, before treatment with the composition, FIG. 1

Avastin: Avastin injection employed to treat macular edema (anti-VEGF)
ocular pressure three months after injection [1]: 35 mmHg | vision acuity three months after injection [1]: 20/40 | time to re-occurrence of macular edema following injection (left eye, intravitreal injection, repeated for more than three years): ~3 months
